This note sets out measurements from publication PMC4996985, “Sequence-Based Screening for Rare Enzymes: New Insights into the World of AMDases Reveal a Conserved Motif and 58 Novel Enzymes Clustering in Eight Distinct Families” (Frontiers in Microbiology, 2016).

This assay addresses T1, AmdP (Polymorphum gilvum, UniProt F2IXG8).
T1 construct: gene SL003B_3169; full length, 744 bp codon-adapted synthetic gene, pET-21a NdeI/XhoI, C-terminal His6 tag kept, E. coli BL21, Ni-NTA purified
T1 sequence (F2IXG8 1-247): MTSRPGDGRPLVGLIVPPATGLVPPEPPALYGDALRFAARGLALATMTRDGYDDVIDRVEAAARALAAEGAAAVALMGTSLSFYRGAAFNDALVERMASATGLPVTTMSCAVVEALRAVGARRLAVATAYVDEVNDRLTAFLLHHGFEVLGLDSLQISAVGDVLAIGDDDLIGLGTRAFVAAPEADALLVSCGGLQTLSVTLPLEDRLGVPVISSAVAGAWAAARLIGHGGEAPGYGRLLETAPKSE
The experiment in a line: chiral GC of product after derivatisation. Type of assay: biochemical. The conditions noted are these: 10 mM substrate, 50 mM Tris pH 7.5; substrate contained <4% racemic flurbiprofen.

For `CC(C(=O)O)(C(=O)O)c1ccc(-c2ccccc2)c(F)c1` [2a, flurbiprofen malonate], the “chiral GC of product after derivatisation” value is given as “selectivity of all three AMDases was analyzed with aryl malonic acid derivates”.
